In patent US6812247B2, “Organometallic complex” (Academia Sinica, priority 2001, dated 2004):

What was measured:
[1] = tested on: supercoiled circular φX174 RFI DNA; assay: Single-strand DNA cleavage at various complex concentrations, 350 nm UV, agarose gel; type: biochemical; conditions: for % form I (supercoiled circular DNA) / % form II (cleaved DNA) / (% form II)/(% form I): pH 6.0
Description: The mixture was irradiated with 350 nm UV light (32-W) for 2.0 h at room temperature. After adding a gel-loading buffer (0.25% bromophenol blue, 0.25% xylene cyanol, and 30% glycerol), the reaction mixture was loaded on a 1% agarose gel, followed by ethidium bromide staining. The gel was visualized by a 312-nm UV transilluminator and photographed by a FB-PDC-34 camera. Supercoiled circular DNA (form I) and cleaved DNA (form II) were clearly seen from the gel.

[2] = tested on: supercoiled circular φX174 RFI DNA; assay: Single-strand DNA cleavage at various pH's, 350 nm UV, agarose gel; type: biochemical; conditions: complex 5.0 μM
Description: Cleavage at Various pH's: A reaction mixture (10 μL) containing supercoiled circular φX174 RFI DNA stock solution (50 μM/base pair), complex 1 (5.0 μM), and a phosphate buffer (0.10 M, pH 5.0, 6.0, 7.0, and 8.0) in a Pyrex vial was preincubated at 37° C. The reaction mixture was then irradiated with 350 nm UV light (32-W) for 2.0 h at room temperature. After adding a gel-loading buffer (0.25% bomophenol blue, 0.25% xylene cyanol, and 30% glycerol), the reaction mixture was loaded on a 1% agarose gel, followed by ethidium bromide staining. The gel was visualized by a 312-nm UV transilluminator and photographed by a FB-PDC-34 camera. Supercoiled circular DNA and cleaved DNA were clearly seen from the gel.

[3] = tested on: 160-bp dsDNA fragment from the 501-660 fragment of pBR322 DNA; assay: Site-specific DNA cleavage of 5'-32P-labeled fragment, polyacrylamide gel against Maxam-Gilbert markers; type: biochemical; conditions: complex 20-100 μM, 350-nm UV
Description: A 160-bp dsDNA fragment was prepared from the 501-660 fragment of pBR322 DNA. It was amplified by the polymerase chain reaction (Bailly & Waring (1995) J. Am. Chem. Soc. 117:7311; Bailly et al. (1993) J. Am. Chem. Soc. 115:3784; and Sayers & Waring (1993) Biochemistry 32:9094), and labeled at the 5′-terminus with γ-[^32P]-ATP and T4 polynucleotide kinase. A reaction mixture containing a 5′-terminus labeled ^32P-DNA solution, a phosphate buffer (0.10 M, pH 6.0), and complex 1 (20-100 μM) in a Pyrex vial was preincubated at 37° C. for 30 min. The reaction mixture was irradiated with 350-nm UV light under aerobic conditions for 2.0 h at room temperature. The bound metal complexes on DNA fragments were removed by using 0.30 N NaCN (pH=11) at 37° C. for 8.0 h (Schwartz et al. (1990) J. Am. Chem. Soc. 112:3673; and Zou et al. (1994) Biochemistry 33:5404). The reaction mixture was then quenched with either a gel-loading buffer or 95% ethanol. […] The samples and the Maxam-Gilbert markers were analyzed using 10% polyacrylamide/8.0 M urea gel. […] Quantitation of relative intensities of DNA fragments was performed using a Microtek scanner and NIH 1.60 image program.
The detected DNA fragments were compared with Maxam-Gilbert markers on an autoradiogram, and quantitated by a computer-assisted program.

[4] = tested on: double helical oligonucleotide d(ATAT)2; assay: DNA binding and cleaving mechanism with oligonucleotide, LC-mass; conditions: 1:1, pH 6.0, in the dark 2.0 h
Description: A double helical oligonucleotide d(ATAT)2 was prepared and added to a phosphate buffer solution (pH=6.0) containing complex 1 (1:1). The solution was kept in the dark for 2.0 h. An intermediate was detected, at a yield of 57%, with a signal at 650.1 for (M+H^+) as analyzed by an electron spray ionization detector in LC-mass chromatogram. Then, the solution was irradiated with 350 nm-UV light for 2.0 h at room temperature. A product was detected with a signal at 456.1 for (M+H^+). […] Then an intramolecular cyclization took place to remove the DMSO and to form a covalent bond between the N-7 nitrogen atom and the platinum in complex 1, resulting in the oligonucleotide cleavage.

2′-deoxyguanosine = assay: Binding and cleaving mechanism with 2'-deoxyguanosine, LC-mass
Description: As a comparison, a reaction involving 2′-deoxyguanosine and complex 1 was carried out. […] As a result, cleavage at a guanine site required assistance from an external base (e.g., piperidine). In another experiment, an excess of complex 1 was added to a 2′-deoxyguanosine solution, followed by piperidine treatment. An intermediate was detected, at a yield of 42%, with a signal at 1063.9 for (M+H^+) as analyzed by an electron spray ionization detector in LC-mass chromatogram. The intermediate was able to give a cyclization product, at a yield of 80%, with a signal at 792.0 for (M+H^+) upon 350-nm UV light irradiation, but not in the dark. The scheme below depicts the just-described reaction: [drawing 6]

[5] = complex 1.0 μM, 350 nm UV 2.0 h
[6] = complex 2.5 μM, 350 nm UV 2.0 h
[7] = complex 5.0 μM, 350 nm UV 2.0 h

## C[S+](C)(=O)[Pt]1([Cl])[O][n+]2ccccc2[S]1 (centres unmarked) [complex 1, PtCl(DMSO)[η^2—C5H4SN(O)]]
[1]; [5]
  % form I (supercoiled circular DNA): 37%
  % form II (cleaved DNA): 63%
  (% form II)/(% form I): 1.7
[1]; [6]
  % form I (supercoiled circular DNA): 20%
  % form II (cleaved DNA): 80%
  (% form II)/(% form I): 4.0
[1]; [7]
  % form I (supercoiled circular DNA): 7.1%
  % form II (cleaved DNA): 93%
  (% form II)/(% form I): 13
[1]; complex 500 μM, in the dark
  % form I (supercoiled circular DNA): 93%
  % form II (cleaved DNA): 7.0%
  (% form II)/(% form I): 0.070
[1]; concentration as low as 1.0 μM
  DNA cleaving activity: very strong DNA cleaving activity
[1]; in the dark
  cleavage of single-strand DNA: did not occur
[2]; pH 5.0, 6.0, or 7.0, 350 nm UV 2.0 h
  DNA forms seen on gel: only cleaved DNA was observed
[2]; pH 8.0, 350 nm UV 2.0 h
  DNA forms seen on gel: both supercoiled circular DNA and cleaved DNA were observed
[3]; with hot piperidine treatment
  site of DNA cleavage: cleaved DNA at purine residues
[3]; without piperidine treatment
  site of DNA cleavage: at adenine residues
[4]
  binding site on nucleic acid: bound to the C-6 amino on an adenine
  yield of complex-bound intermediate: 57%
2′-deoxyguanosine
  binding site on nucleic acid: bound to the C-2 amino on a guanine
2′-deoxyguanosine; 350-nm UV light irradiation, not in the dark
  yield of cyclization product from intermediate: 80%
2′-deoxyguanosine; excess of complex 1, piperidine treatment
  yield of complex-bound intermediate: 42%
